Measured values published in patent US20250115597A1, “TYK2 INHIBITORS AND COMPOSITIONS AND METHODS THEREOF” (LYNK PHARMACEUTICALS CO. LTD., priority 2021, published 2025).
Where two headings read alike, the source gives them in different places.

Tests used:
[1] = target: T1, TYK2-JH2 domain (Homo sapiens, UniProt P29597); test: Binding activity test for JH2 domain of TYK2 (Tb-antibody/tracer FRET)
T1 construct: IC50 on JH2 domain activity (nM)
Experimental: Binding Activity Test for […] Domain of JAK1 and TYK2 The compounds are prepared in DMSO for 200× top dose, then serial dilute it with 27-fold for 3 more points. Add 8 μL/well in echo source plate, echo will add 75 nL/well with 3-fold serial dilution for 11 points in assay plate. 75 nL DMSO for high control and low control. […] For low control, add 5 μL/well assay buffer. And then spin down at 1000 rpm and centrifuge for 30 seconds. After enzyme system prepared, add 5 μL of Tb-antibody solution into each wells of assay plate. Spin down at 1000 rpm and centrifuge for 30 sec. After Tb-antibody added, also add 5 μL of tracer into the assay plate. Spin down at 1000 rpm and centrifuge for 30 sec. Incubate for 60 mins at 25° C. firstly and then continue to incubate the plate at 4° C. overnight. Read by envision in FRET mode. The Luminescence value was recorded by a multi-label reader Envision (PerkinElmer).

[2] = target: T2, Ba/F3-FL-TYK2-P760L cells (Homo sapiens, UniProt P29597, P760L, cells depend on it); test: Anti-proliferative assay, Ba/F3-FL-TYK2-P760L cells (Cell-Titer Glo); type: cell-based; conditions: 72 h, read-out: BaF3-FL-T2P760L IC50
T2 construct: BaF3-FL-T2P760L (nM)
T2 sequence (P29597 whole entry P760L): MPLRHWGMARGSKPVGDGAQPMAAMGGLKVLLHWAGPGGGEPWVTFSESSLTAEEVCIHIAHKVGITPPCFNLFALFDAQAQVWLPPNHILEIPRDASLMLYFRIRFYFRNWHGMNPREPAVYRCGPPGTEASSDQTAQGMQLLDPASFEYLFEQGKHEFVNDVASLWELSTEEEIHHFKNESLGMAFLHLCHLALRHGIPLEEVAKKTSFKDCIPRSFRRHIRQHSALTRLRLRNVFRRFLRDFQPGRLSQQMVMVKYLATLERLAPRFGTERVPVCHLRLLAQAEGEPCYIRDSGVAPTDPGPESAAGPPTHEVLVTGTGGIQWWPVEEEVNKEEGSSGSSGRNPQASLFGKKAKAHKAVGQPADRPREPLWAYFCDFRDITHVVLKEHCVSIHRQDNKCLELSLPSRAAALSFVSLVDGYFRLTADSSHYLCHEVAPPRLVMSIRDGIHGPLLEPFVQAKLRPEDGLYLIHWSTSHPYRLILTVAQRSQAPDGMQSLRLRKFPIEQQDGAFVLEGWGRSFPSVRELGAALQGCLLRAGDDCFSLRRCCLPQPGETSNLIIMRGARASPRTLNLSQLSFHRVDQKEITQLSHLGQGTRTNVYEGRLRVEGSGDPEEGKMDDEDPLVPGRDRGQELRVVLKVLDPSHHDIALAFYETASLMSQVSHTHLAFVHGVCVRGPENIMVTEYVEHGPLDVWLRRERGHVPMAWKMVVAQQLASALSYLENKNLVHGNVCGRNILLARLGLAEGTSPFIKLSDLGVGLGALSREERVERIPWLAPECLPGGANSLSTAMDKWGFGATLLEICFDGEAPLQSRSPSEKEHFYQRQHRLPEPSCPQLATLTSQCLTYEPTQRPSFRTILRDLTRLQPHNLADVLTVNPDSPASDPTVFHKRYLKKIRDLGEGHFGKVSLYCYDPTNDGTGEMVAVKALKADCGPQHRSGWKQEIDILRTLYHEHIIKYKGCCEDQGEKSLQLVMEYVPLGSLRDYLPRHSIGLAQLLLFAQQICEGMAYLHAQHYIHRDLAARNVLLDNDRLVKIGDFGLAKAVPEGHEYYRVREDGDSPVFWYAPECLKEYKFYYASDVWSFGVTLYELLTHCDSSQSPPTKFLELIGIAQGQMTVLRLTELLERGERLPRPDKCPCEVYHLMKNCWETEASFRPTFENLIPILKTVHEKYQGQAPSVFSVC
How it was run: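 Ba/F3 cells made IL-3-independent by TEL-fused or full-length mutant JAK-family kinases, seeded at 2000/well and dosed after 24 h with 9 three-fold dilutions topping at 20 μM. Viability after 72 h at 37 °C, 5% CO2 by Cell-Titer Glo ATP luminescence.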

[3] = Microsomal metabolic stability assay; type: in vitro ADME; conditions: pH 7.4, 0.5 mg/mL protein, 1 μM compound
How it was run: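 Test article at 1 μM with 0.5 mg/mL microsomal protein and 2 mM NADPH, in 100 mM potassium phosphate pH 7.4 with 1.0 mM EDTA at 37 °C. Sampled at 0–45 min and quantified by LC/MS/MS. T1/2 from the slope of ln % remaining vs time.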

[4] = dog liver microsomes, read-out: Dog LM Clint
[5] = dog liver microsomes, read-out: Dog LM T½
[6] = human liver microsomes, read-out: Human LM Clint
[7] = human liver microsomes, read-out: Human LM T½
[8] = rat liver microsomes, read-out: Rat LM Clint
[9] = rat liver microsomes, read-out: Rat LM T½

T1 sequence (P29597 589-875 limits assumed): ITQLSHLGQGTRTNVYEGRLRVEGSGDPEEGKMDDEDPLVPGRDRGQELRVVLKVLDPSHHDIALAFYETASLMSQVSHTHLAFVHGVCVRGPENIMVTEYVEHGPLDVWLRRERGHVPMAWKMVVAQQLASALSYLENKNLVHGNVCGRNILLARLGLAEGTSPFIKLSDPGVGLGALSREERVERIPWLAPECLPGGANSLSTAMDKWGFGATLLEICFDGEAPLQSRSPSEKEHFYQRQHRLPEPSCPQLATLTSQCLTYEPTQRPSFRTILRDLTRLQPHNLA

| SMILES | IC50 [1] | GI50 [2] | microsomal CLint at 1 μM [3, 4] | half-life at 1 μM [3, 5] | microsomal CLint at 1 μM [3, 6] | half-life at 1 μM [3, 7] | microsomal CLint at 1 μM [3, 8] | half-life at 1 μM [3, 9] |
| --- | --- | --- | --- | --- | --- | --- | --- | --- |
| [2H]C([2H])([2H])NC(=O)c1cnc(NC(=O)C2CC2)cc1Nc1cn(C)c2ccn(CC)c(=O)c12 [Example 100, 6-(Cyclopropanecarbonylamino)-4-[(5-ethyl-1-methyl-4-oxo-pyrrolo[3,2-c]pyridin-3-yl)amino]-N-(methyl-d3)pyridine-3-carboxamide] | 0.887 nM | 374 nM | < 18.6 µL/min/mg | > 186 min | 28.6 µL/min/mg | 91.6 min | 49.5 µL/min/mg | 47.7 min |
| [2H]C([2H])([2H])NC(=O)c1cnc(NC(=O)C2CC2)cc1Nc1ccn2ncc(CCC)c2c1OC [Example 215, 6-(Cyclopropanecarboxamido)-4-((4-methoxy-3-propylpyrazolo[1,5-a]pyridin-5-yl)amino)-N-(methyl-d3)nicotinamide] | 0.532 nM | 159 nM |  |  |  |  |  |  |
| [2H]C([2H])([2H])NC(=O)c1cnc(NC(=O)C2CC2)cc1Nc1ccc2cnc(CC)n2c1OC [Example 227, 6-(Cyclopropanecarboxamido)-4-((3-ethyl-5-methoxyimidazo[1,5-a]pyridin-6-yl)amino)-N-(methyl-d3)nicotinamide] | 7.53 nM | > 5000 nM |  |  |  |  |  |  |
| [2H]C([2H])([2H])NC(=O)c1cnc(NC(=O)C(F)(F)F)cc1Nc1ccc2cnn(CC)c2c1OC [Example 271, 4-((1-Ethyl-7-methoxy-1H-indazol-6-yl)amino)-N-(methyl-d3)-6-(2,2,2-trifluoroacetamido)nicotinamide] | 25.6 nM | 2610 nM |  |  |  |  |  |  |
| CCn1ncc2ccc(Nc3cc(NC(=O)C4CC4)ncc3Cl)c(OC)c21 [Example 272, N-(5-chloro-4-((1-ethyl-7-methoxy-1H-indazol-6-yl)amino)pyridin-2-yl)cyclopropanecarboxamide] | 138 nM | 4760 nM |  |  |  |  |  |  |
| [2H]C([2H])([2H])NC(=O)c1cnc(NC(=O)C2CC2)cc1Nc1ncn2ncc(C)c2c1OC [Example 279, 6-(Cyclopropanecarboxamido)-4-((4-methoxy-3-methylpyrazolo[1,5-c]pyrimidin-5-yl)amino)-N-(methyl-d3)nicotinamide] | 0.33 nM | 70.1 nM |  |  |  |  |  |  |
| [2H]C([2H])([2H])NC(=O)c1cnc(NC(=O)C2CC2)cc1Nc1ncn2ncc(CC)c2c1OC [Example 280, 6-(Cyclopropanecarboxamido)-4-((3-ethyl-4-methoxypyrazolo[1,5-c]pyrimidin-5-yl)amino)-N-(methyl-d3)nicotinamide] | 0.18 nM | 40.2 nM |  |  |  |  |  |  |
| [2H]C([2H])([2H])NC(=O)c1cnc(NC(=O)C2CC2)cc1Nc1ncn2ncc(Cl)c2c1OC [Example 281, 4-((3-Chloro-4-methoxypyrazolo[1,5-c]pyrimidin-5-yl)amino)-6-(cyclopropanecarboxamido)-N-(methyl-d3)nicotinamide] | 0.25 nM | 48.2 nM |  |  |  |  |  |  |

The remaining molecules from weak to strong by IC50 [1], led by results:

| IC50 [1] | GI50 [2] | microsomal CLint at 1 μM [3, 4] | half-life at 1 μM [3, 5] | microsomal CLint at 1 μM [3, 6] | half-life at 1 μM [3, 7] | microsomal CLint at 1 μM [3, 8] | half-life at 1 μM [3, 9] | SMILES |
| --- | --- | --- | --- | --- | --- | --- | --- | --- |
| 69.2 nM | > 5000 nM |  |  |  |  |  |  | [2H]C([2H])([2H])NC(=O)c1cnc(NC(=O)C2CC2)cc1Nc1cnc2cnn(CC)c2c1OC [Example 265, 6-(Cyclopropanecarboxamido)-4-((1-ethyl-7-methoxy-1H-pyrazolo[4,3-b]pyridin-6-yl)amino)-N-(methyl-d3)nicotinamide] |
| 34.4 nM | > 5000 nM |  |  |  |  |  |  | [2H]C([2H])([2H])NC(=O)c1cnc(NC(=O)C2CC2)cc1Nc1ccc2cnn(CCN(C)C)c2c1OC [Example 274, 6-(Cyclopropanecarboxamido)-4-((1-(2-(dimethylamino)ethyl)-7-methoxy-1H-indazol-6-yl)amino)-N-(methyl-d3)nicotinamide] |
| 4.03 nM | 78.3 nM | 14.7 µL/min/mg | 94 min | 69.3 µL/min/mg | 20 min | 46.4 µL/min/mg | 29.9 min | [2H]C([2H])([2H])NC(=O)c1cnc(NC(=O)C2CC2)cc1Nc1cn(C)c2ccn(C(C)C(F)(F)F)c(=O)c12 (centres unmarked) [Example 190, 6-(Cyclopropanecarboxamido)-N-(methyl-d3)-4-((1-methyl-4-oxo-5-(1,1,1-trifluoropropan-2-yl)-4,5-dihydro-1H-pyrrolo[3,2-c]pyridin-3-yl)amino)nicotinamide] |
| 1.58 nM | 1700 nM |  |  |  |  |  |  | [2H]C([2H])([2H])NC(=O)c1cnc(NC(=O)C2CC2)cc1Nc1ccc2nn(C)c(CC)c2c1OC [Example 232, 6-(Cyclopropanecarboxamido)-4-((3-ethyl-4-methoxy-2-methyl-2H-indazol-5-yl)amino)-N-(methyl-d3)nicotinamide] |
| 1.41 nM | 368 nM | 11.2 µL/min/mg | 123 min | 10.8 µL/min/mg | 129 min | 53.8 µL/min/mg | 25.8 min | [2H]C([2H])([2H])NC(=O)c1cnc(NC(=O)C2CC2)cc1Nc1cn(CCOC)c2ccn(CC)c(=O)c12 [Example 193, 6-(Cyclopropanecarboxamido)-4-((5-ethyl-1-(2-methoxyethyl)-4-oxo-4,5-dihydro-1H-pyrrolo[3,2-c]pyridin-3-yl)amino)-N-(methyl-d3)nicotinamide] |
| 1.31 nM | 205 nM |  |  |  |  |  |  | [2H]C([2H])([2H])NC(=O)c1cnc(NC(=O)C2CC2)cc1Nc1cn(C)c2ncn(C(C)C(F)(F)F)c(=O)c12 (centres unmarked) [Example 217, 6-(Cyclopropanecarboxamido)-N-(methyl-d3)-4-((7-methyl-4-oxo-3-(1,1,1-trifluoropropan-2-yl)-4,7-dihydro-3H-pyrrolo[2,3-d]pyrimidin-5-yl)amino)nicotinamide] |
| 1.19 nM | 145 nM | 16.8 µL/min/mg | 82.5 min | 31.6 µL/min/mg | 43.9 min | 38.9 µL/min/mg | 35.7 min | [2H]C([2H])([2H])NC(=O)c1cnc(Nc2ccn(C)n2)cc1Nc1ccc2cnn(C([2H])([2H])[2H])c2c1OC [Example 154, 4-((7-Methoxy-1-(methyl-d3)-1H-indazol-6-yl)amino)-N-(methyl-d3)-6-((1-methyl-1H-pyrazol-3-yl)amino)nicotinamide] |
| 0.92 nM | 102 nM | 15.9 µL/min/mg | 86.9 min | 48.8 µL/min/mg | 28.4 min | 73 µL/min/mg | 19 min | [2H]C([2H])([2H])NC(=O)c1cnc(NC(=O)C2CC2)cc1Nc1cn(C)c2ccn(CC(F)(F)F)c(=O)c12 [Example 110, 6-(Cyclopropanecarboxamido)-N-(methyl-d3)-4-((1-methyl-4-oxo-5-(2,2,2-trifluoroethyl)-4,5-dihydro-1H-pyrrolo[3,2-c]pyridin-3-yl)amino)nicotinamide] |
| 0.4 nM | 42.1 nM | 11.4 µL/min/mg | 121 min | 6.45 µL/min/mg | 215 min | 47.1 µL/min/mg | 29.4 min | [2H]C([2H])([2H])NC(=O)c1nnc2cc1Nc1cc(cc(-c3ncn(C)n3)c1OC)COCc1cccc(n1)N2 [Example 68, 10-Methoxy-N-(methyl-d3)-11-(1-methyl-1H-1,2,4-triazol-3-yl)-15-oxa-2,4,5,8,21-pentaazatetracyclo[15.3.1.1^{3,7}.1^{9,13}]tricosa-1(21),3,5,7(23),9(22),10,12,17,19-nonaene-6-carboxamide] |
| 0.343 nM | 68.6 nM |  |  |  |  |  |  | [2H]C([2H])([2H])NC(=O)c1nnc(NC(=O)C2CC2)cc1Nc1nn(CC)c2ccn(CC(F)(F)F)c(=O)c12 [Example 218, 6-(Cyclopropanecarboxamido)-4-((1-ethyl-4-oxo-5-(2,2,2-trifluoroethyl)-4,5-dihydro-1H-pyrazolo[4,3-c]pyridin-3-yl)amino)-N-(methyl-d3)pyridazine-3-carboxamide] |
| 0.27 nM | 75.2 nM |  |  |  |  |  |  | [2H]C([2H])([2H])NC(=O)c1cnc(NC(=O)C2CC2)cc1Nc1ncn2ncc(C#N)c2c1OC [Example 282, 4-((3-Cyano-4-methoxypyrazolo[1,5-c]pyrimidin-5-yl)amino)-6-(cyclopropanecarboxamido)-N-(methyl-d3)nicotinamide] |
